Laboratory results reported in publication PMC6895203, “Conformational pathway provides unique sensitivity to a synaptic mGluR” (Nature Communications, 2019).
“And” between values parts separate entries of the source, which are not always exact repeats. Equal entries are not always repeated.

Columns and labels:
[1] = target: T1, SNAP-mGluR7(N74K) homodimer (Rattus norvegicus, UniProt P35400, N74K); assay: smFRET on SNAP-mGluR7(N74K) homodimers; assay type: biochemical; details: 10 mM glutamate; wild-type at >10X higher glutamate
T1 construct: HA (N); made in house; host or cells: HEK293T
T1 sequence (P35400 35-915 N74K): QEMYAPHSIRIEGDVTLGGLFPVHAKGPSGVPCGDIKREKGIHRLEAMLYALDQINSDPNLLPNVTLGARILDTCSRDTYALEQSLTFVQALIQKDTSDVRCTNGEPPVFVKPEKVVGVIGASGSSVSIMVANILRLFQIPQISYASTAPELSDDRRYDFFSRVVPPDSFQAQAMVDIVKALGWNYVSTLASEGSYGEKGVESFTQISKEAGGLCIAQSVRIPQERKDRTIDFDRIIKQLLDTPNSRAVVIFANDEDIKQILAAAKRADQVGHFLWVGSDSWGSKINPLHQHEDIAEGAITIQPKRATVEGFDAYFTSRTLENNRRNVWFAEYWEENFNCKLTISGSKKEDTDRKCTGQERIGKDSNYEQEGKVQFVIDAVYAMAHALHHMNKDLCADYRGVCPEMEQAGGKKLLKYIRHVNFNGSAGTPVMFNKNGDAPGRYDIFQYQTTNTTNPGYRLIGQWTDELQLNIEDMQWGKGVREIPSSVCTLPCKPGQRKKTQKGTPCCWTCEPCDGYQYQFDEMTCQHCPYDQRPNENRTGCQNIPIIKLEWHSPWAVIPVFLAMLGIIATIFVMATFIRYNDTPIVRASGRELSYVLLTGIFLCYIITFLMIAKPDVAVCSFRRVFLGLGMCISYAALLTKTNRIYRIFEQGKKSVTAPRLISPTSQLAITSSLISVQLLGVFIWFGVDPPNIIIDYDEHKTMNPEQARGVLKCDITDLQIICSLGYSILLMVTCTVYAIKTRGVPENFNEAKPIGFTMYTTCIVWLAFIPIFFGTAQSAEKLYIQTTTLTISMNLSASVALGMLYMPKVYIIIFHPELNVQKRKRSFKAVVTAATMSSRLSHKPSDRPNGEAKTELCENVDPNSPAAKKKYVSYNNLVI
Excerpt: (§1) (100 ms time resolution).

[2] = target: T2, CLIP-mGluR3/SNAP-mGluR7 heterodimer (mGluR3/7) (Rattus norvegicus, UniProt P31422+P35400); assay: smFRET on CLIP-mGluR3/SNAP-mGluR7 heterodimers; assay type: biochemical; details: for smFRET histogram value: 10uM Glu
T2 construct: Flag (N); HA (N); made in house; host or cells: HEK293T
T2 sequence (P31422 23-879): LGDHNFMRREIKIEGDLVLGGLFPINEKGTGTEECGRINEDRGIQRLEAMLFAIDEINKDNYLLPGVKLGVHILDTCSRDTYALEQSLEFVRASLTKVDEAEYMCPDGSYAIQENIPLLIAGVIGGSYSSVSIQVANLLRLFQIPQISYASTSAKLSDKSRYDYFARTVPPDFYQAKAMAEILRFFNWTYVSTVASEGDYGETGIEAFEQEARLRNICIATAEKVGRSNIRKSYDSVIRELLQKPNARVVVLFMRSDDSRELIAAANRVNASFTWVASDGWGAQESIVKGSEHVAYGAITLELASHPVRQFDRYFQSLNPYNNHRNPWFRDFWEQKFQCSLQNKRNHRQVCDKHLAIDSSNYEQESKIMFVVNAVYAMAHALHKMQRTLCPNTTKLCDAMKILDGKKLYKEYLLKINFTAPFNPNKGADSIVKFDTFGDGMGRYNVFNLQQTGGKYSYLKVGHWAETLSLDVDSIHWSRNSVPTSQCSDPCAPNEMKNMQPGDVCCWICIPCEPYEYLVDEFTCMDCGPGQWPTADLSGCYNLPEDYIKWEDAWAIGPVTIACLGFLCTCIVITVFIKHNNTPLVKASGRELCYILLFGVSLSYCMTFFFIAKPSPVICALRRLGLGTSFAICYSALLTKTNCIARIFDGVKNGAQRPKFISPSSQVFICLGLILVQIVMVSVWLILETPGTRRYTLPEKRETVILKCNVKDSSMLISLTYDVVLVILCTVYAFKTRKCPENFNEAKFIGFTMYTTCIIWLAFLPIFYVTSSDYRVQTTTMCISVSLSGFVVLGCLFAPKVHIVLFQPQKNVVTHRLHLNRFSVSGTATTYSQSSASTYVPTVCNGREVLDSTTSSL
T2 sequence (P35400 35-915): as the sequence (P35400 35-915 N74K) above, with K40N counted along it
Procedure: Samples were prepared in the same manner as for mGluR2/7 heterodimers and imaged in smFRET.
as §1

[3] = target: T3, SNAP-mGluR2(F756D)/mGluR7 heterodimer (Rattus norvegicus, UniProt P31421+P35400, F756D); assay: Whole-cell patch clamp of GIRK1 current, trans-activation in SNAP-mGluR2(F756D)/mGluR7; assay type: cell-based; details: for glutamate GIRK concentration-response relation compared to mGluR2/2: patch clamp
T3 construct: HA (N); expressed in transfected cells; host or cells: HEK293 / HEK293T
T3 sequence (P31421 19-872 F756D): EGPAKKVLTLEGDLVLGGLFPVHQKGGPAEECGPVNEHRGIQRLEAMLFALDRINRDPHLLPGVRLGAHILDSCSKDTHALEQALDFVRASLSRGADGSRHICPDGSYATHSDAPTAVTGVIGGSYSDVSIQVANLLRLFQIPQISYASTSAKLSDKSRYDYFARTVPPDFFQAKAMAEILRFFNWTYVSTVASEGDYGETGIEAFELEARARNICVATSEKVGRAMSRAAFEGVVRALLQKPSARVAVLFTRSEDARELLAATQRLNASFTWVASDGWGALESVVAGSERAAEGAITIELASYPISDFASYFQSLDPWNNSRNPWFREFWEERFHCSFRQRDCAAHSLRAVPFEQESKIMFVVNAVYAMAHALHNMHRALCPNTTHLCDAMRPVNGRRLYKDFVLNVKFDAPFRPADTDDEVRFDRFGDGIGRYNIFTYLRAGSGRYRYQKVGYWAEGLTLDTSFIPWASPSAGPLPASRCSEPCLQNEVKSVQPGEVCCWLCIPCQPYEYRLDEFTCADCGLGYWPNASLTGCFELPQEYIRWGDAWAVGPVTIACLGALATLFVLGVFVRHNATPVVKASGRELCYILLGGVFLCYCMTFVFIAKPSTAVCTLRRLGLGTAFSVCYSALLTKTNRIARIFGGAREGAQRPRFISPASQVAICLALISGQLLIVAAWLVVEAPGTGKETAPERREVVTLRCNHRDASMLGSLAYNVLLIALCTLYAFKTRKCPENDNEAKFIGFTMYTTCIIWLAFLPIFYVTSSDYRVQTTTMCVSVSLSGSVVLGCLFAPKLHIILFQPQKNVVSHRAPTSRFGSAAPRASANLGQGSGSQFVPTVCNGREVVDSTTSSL
T3 sequence (P35400 35-915): as the sequence (P35400 35-915 N74K) above, with K40N counted along it
Excerpt: We explored this further by examining trans-activation, whereby binding of ligand to one subunit activates G-protein interaction in the partner subunit[46],[47]. To specifically activate only the mGluR2 subunit of the mGluR2/7 heterodimer, we selectively attached a photoswitched tethered ligand to mGluR2. […] SNAP-mGluR2(F756D) was co-expressed with wild-type mGluR7 along with the GIRK1 channel.
Illumination was applied to the entire field of view using either a Polychrome V monochromator (TILL Photonics) through a 20× objective, or a Lambda DG4 high-speed wavelength switcher (Sutter Instruments) with 380 nm and 500 nm filters through a 40× objective. pClamp software was used for both data acquisition and control of illumination.

mGluR5(YADA) homodimer = details: 10 mM glutamate ref 46; cited from earlier work
[4] = target: SNAP-mGluR7/SNAP-mGluR7 homodimer (mGluR7/7) (Rattus norvegicus, UniProt P35400); assay: Live-cell ensemble FRET of SNAP-mGluR7/7 homodimer in HEK293T cells; assay type: cell-based; parameters: HA (N); made in house; host or cells: HEK293T
SNAP-mGluR7/SNAP-mGluR7 homodimer (mGluR7/7), sequence (P35400 35-915): as the sequence (P35400 35-915 N74K) above, with K40N counted along it
Procedure: After labeling, cells were mounted on an upright, scanning confocal microscope (Zeiss LSM 780) and imaged with a 20X objective. […] Clusters of cells were analyzed together and FRET was calculated as FRET = (IA)/(ID + IA), in which ID is the fluorescence donor intensity and IA is the fluorescence acceptor intensity. […] Fitting of dose–response curves was performed using Prism (Graphpad). […] Drugs were delivered with a gravity-driven perfusion system.

[5] = target: SNAP-mGluR2/SNAP-mGluR2 (mGluR2/2) (Rattus norvegicus, UniProt P31421); assay: Whole-cell patch clamp of GIRK1 current, mGluR2/2 homodimer; details: mGluR2/2+GIRK; for titration values, single replicates 1-3: individual replicates; for titration values, AVG (normalized response): Supplemental Figure 1a
SNAP-mGluR2/SNAP-mGluR2 (mGluR2/2), sequence (P31421 19-872): as the sequence (P31421 19-872 F756D) above, with D738F counted along it
Procedure: HEK293T cells were cultured in DMEM with 5% FBS on poly-L- lysine-coated glass coverslips. […] DNA plasmids were transfected into cells using lipofectamine 2000 (Thermo Fisher). For electrophysiology experiments, cells were transfected with wild-type-mGluR2 or wild-type- mGluR7 or SNAP-mGluR2(F756D), GIRK1-F137S, and yellow fluorescent protein (YFP) (as a transfection marker) at a 7:7:1 ratio with 0.7 mg plasmid per well for receptor and channel.
Whole-cell patch clamp recordings from single isolated cells were performed 24–48 h after transfection, in a high potassium extra-cellular solution containing (in mM): 120 KCl, 29 NaCl, 1 MgCl2, 2 CaCl2 and 10 HEPES, pH 7.4. Cells were voltage clamped to −60 mV using an Axopatch 200B amplifier (Axon Instruments) and membrane currents were recorded. Glass pipettes of resistance between 3 and 8 MΩ were filled with intracellular solution containing (in mM): 140 KCl, 10 HEPES, 3 Na2ATP, 0.2 Na2GTP, 5 EGTA and 3 MgCl2, pH 7.4. Data were acquired with a 2 kHz acquisition rate and low-pass filtered with a 4-pole Bessel filter at 1 kHz. Data acquisition and analysis were performed using pCLAMP 10 software (Axon Instruments).

With N[C@@H](CCC(=O)O)C(=O)O [glutamate] the “occupancy of activated low FRET state vs wild-type mGluR7” value [1] was “greater occupancy of the activated low FRET (~0.2) state”, the smFRET histogram value ([2]; FRET bin 0) was 5.12E-04 and the smFRET histogram value ([2]; FRET bin 0.02) was 0.00118. For the same molecule, the smFRET histogram value ([2]; FRET bin 0.04) was 0.00527, the smFRET histogram value ([2]; FRET bin 0.06) was 0.01241 and the smFRET histogram value ([2]; FRET bin 0.08) was 0.03308. The smFRET histogram value ([2]; FRET bin 0.1) was 0.05942, the smFRET histogram value ([2]; FRET bin 0.12) was 0.08729 and the smFRET histogram value ([2]; FRET bin 0.14) was 0.111. For the same molecule, the smFRET histogram value ([2]; FRET bin 0.16) was 0.1262, the smFRET histogram value ([2]; FRET bin 0.18) was 0.1233 and the smFRET histogram value ([2]; FRET bin 0.2) was 0.1027. It also gave a smFRET histogram value ([2]; FRET bin 0.22) of 0.08729, a smFRET histogram value ([2]; FRET bin 0.24) of 0.06369 and a smFRET histogram value ([2]; FRET bin 0.26) of 0.04632. For the same molecule, the smFRET histogram value ([2]; FRET bin 0.28) was 0.03089, the smFRET histogram value ([2]; FRET bin 0.3) was 0.01963 and the smFRET histogram value ([2]; FRET bin 0.32) was 0.01469. It also gave a smFRET histogram value ([2]; FRET bin 0.34) of 0.01371, a smFRET histogram value ([2]; FRET bin 0.36) of 0.01107 and a smFRET histogram value ([2]; FRET bin 0.38) of 0.01037. For the same molecule, the smFRET histogram value ([2]; FRET bin 0.4) was 0.00851, the smFRET histogram value ([2]; FRET bin 0.42) was 0.00558 and the smFRET histogram value ([2]; FRET bin 0.44) was 0.00425. The smFRET histogram value ([2]; FRET bin 0.46) was 0.00239, the smFRET histogram value ([2]; FRET bin 0.48) was 0.00285 and the smFRET histogram value ([2]; FRET bin 0.5) was 0.00309. It also gave a smFRET histogram value ([2]; FRET bin 0.52) of 0.00461, a smFRET histogram value ([2]; FRET bin 0.54) of 0.00369 and a smFRET histogram value ([2]; FRET bin 0.56) of 0.00265. The smFRET histogram value ([2]; FRET bin 0.58) was 0.00122, the smFRET histogram value ([2]; FRET bin 0.6) was 7.52E-04 and the smFRET histogram value ([2]; FRET bin 0.62) was 8.08E-05. It also gave a smFRET histogram value ([2]; FRET bin 0.64) of 4.04E-05, a smFRET histogram value ([2]; FRET bin 0.66) of 1.92E-05 and a smFRET histogram value ([2]; FRET bin 0.68) of 1.92E-05. It also gave a smFRET histogram value ([2]; FRET bin 0.7) of 6.75E-05, a smFRET histogram value ([2]; FRET bin 0.72) of 4.04E-05 and a smFRET histogram value ([2]; FRET bin 0.74) of 7.95E-06. For the same molecule, the smFRET histogram value ([2]; FRET bin 0.76) was 1.62E-04, the smFRET histogram value ([2]; FRET bin 0.78) was 4.04E-05 and the smFRET histogram value ([2]; FRET bin 0.8) was 0. It also gave a smFRET histogram value ([2]; FRET bin 0.82) of 0, a smFRET histogram value ([2]; FRET bin 0.84) of 0 and a smFRET histogram value ([2]; FRET bin 0.86) of 0. It also gave a smFRET histogram value ([2]; FRET bin 0.88) of 0, a smFRET histogram value ([2]; FRET bin 0.9) of 0 and a smFRET histogram value ([2]; FRET bin 0.92) of 0. The smFRET histogram value ([2]; FRET bin 0.94) was 0, the smFRET histogram value ([2]; FRET bin 0.96) was 0 and the smFRET histogram value ([2]; FRET bin 0.98) was 0. The smFRET histogram value ([2]; FRET bin 1) was 0, the active state occupancy ([2]; 10 μM glutamate) was ~ 95% and the “Norm. (100 nM Glu), average” value ([3]; 100 nM Glu normalised to 1 mM Glu, average of cells) was 0.158. For the same molecule, the “Norm. (1 uM Glu), average” value ([3]; 1 uM Glu normalised to 1 mM Glu, average of cells) was 0.4678, the “Norm. (1 uM Glu)” value ([3]; 1 uM Glu normalised to 1 mM Glu, single cells, listed as Glu) was 0.3693 and 0.5844 and 0.4728 and 0.4449 and the “Norm. (10 uM), average” value ([3]; 10 uM Glu normalised to 1 mM Glu, average of cells) was 0.7782. The “Norm. (10 uM)” value ([3]; 10 uM Glu normalised to 1 mM Glu, single cells, listed as Glu) was 0.7837 and 0.9099 and 0.6409, the “Norm. (100 uM), average” value ([3]; 100 uM Glu normalised to 1 mM Glu, average of cells) was 0.9915 and the “Norm. (100 uM)” value ([3]; 100 uM Glu normalised to 1 mM Glu, single cells, listed as Glu) was 1.055 and 0.9085 and 1.011. For the same molecule, the “glutamate GIRK concentration-response relation compared to mGluR2/2” value [3] was “shifted to the left”, the “glutamate GIRK concentration-response relation compared to mGluR2/2” value ([3]; listed as Glutamate) was “left-shifted” and the activation by glutamate (mGluR5(YADA) homodimer) was “not be activated”. The FRET decrease ([4]; 10 mM glutamate, live HEK293T cells) was “barely measurable FRET decrease”, the “fractional change in FRET (Figure 1c), Average” value ([4]; 10 mM glutamate, live cells) was 0.002 and the “glutamate concentration required for a measurable response” value ([4]; live-cell ensemble FRET) was 10 mM. For the same molecule, the FRET change ([4]; up to 1 mM glutamate, live HEK293T cells) was “no detectable FRET change”, the “titration values, single replicates 1-3” value ([5]; Glu 1e-6, listed as Glu) was 0.1214 and 0.05844 and 0.0437 and the “titration values, AVG (normalized response)” value ([5]; Glu 1e-5) was 0.4456. For the same molecule, the “titration values, single replicates 1-3” value ([5]; Glu 1e-5, listed as Glu) was 0.4624 and 0.4291 and 0.4452, the “titration values, AVG (normalized response)” value ([5]; Glu 0.0001) was 0.9358 and the “titration values, single replicates 1-3” value ([5]; Glu 0.0001, listed as Glu) was 0.9459 and 0.9335 and 0.9281. The “titration values, AVG (normalized response)” value ([5]; Glu 0.001) was 1.022, the “titration values, single replicates 1-3” value ([5]; Glu 0.001, listed as Glu) was 1.05 and 1.012 and 1.0027 and the “titration values, AVG (normalized response)” value ([5]; Glu 0.01 (normalisation point)) was 1. For the same molecule, the “titration values, single replicates 1-3” value ([5]; Glu 0.01 (normalisation point)) was 1.
